The target in test [1] is T1, NS3-NS4 protease (full-length NS3/NS4A-2) (Hepatitis C virus genotype 1a, UniProt P27958).
T1 construct: Recombinant E. coli or Baculovirus full-length NS3 was diluted to 3.33 μM with assay buffer; made in house; host or cells: E. coli or baculovirus (insect cells)
Nature of the test: NS3-NS4 protease assay / NS3 inhibition assay (RETS1 substrate, fluorescence kinetic read). To be noted: read-out: NS3-NS4 IC50. Type of test: biochemical.

In test [2] the test system is HCV sub-genomic replicon GS4.3 (HuH-7 hepatoma cells). Nature of the test: Quantitation by ELISA of neomycin phosphotransferase II (NPTII) in the HCV sub-genomic replicon, GS4.3. Type of test: cell-based. The source says:
Quantitation by ELISA of the Selectable Marker Protein, Neomycin Phosphotransferase II (NPTII) in the HCV Sub-Genomic Replicon, GS4.3
The HCV sub-genomic replicon (1377/NS3-3′, accession No. AJ242652), stably maintained in HuH-7 hepatoma cells, was created by Lohmann et al. Science 285: 110-113 (1999). The replicon-containing cell culture, designated GS4.3, was obtained from Dr. Christoph Seeger of the Institute for Cancer Research, Fox Chase Cancer Center, Philadelphia, Pa.
GS4.3 cells were maintained at 37° C., 5% CO2, in DMEM (Gibco 11965-092) supplemented with L-glutamine 200 mM (100×) (Gibco25030-081), non-essential amino acids (NEAA)(Biowhittaker 13-114E), heat-inactivated (HI) Fetal Bovine Serum(FBS)(Hyclone SH3007.03) and […] geneticin (G418)(Gibco 10131-035). Cells were sub-divided 1:3 or 4 every 2-3 days.
24 h prior to the assay, GS4.3 cells were collected, counted, and plated in 96-well plates (Costar 3585) at 7500 cells/well in 100 μl standard maintenance medium (above) and incubated in the conditions above. To initiate the assay, culture medium was removed, cells were washed once with PBS (Gibco 10010-023) and 90 μl Assay Medium (DMEM, L-glutamine, NEAA, 10% HI FBS, no G418) was added. Inhibitors were made as a 10× stock in Assay Medium, (3-fold dilutions from 10 μM to […] final concentration, final DMSO concentration 1%), 10 μl were added to duplicate wells, plates were rocked to mix, and incubated as above for 72 h.
An NPTII Elisa kit was obtained from AGDIA, Inc. (Compound direct ELISA test system for Neomycin Phosphotransferase II, PSP 73000/4800). Manufacturer's instructions were followed, with some modifications. 10×PEB-1 lysis buffer was made up to include 500 μM PMSF (Sigma P7626, 50 mM stock in isopropanol). After 72 h incubation, cells were washed once with PBS and 150 μlPEB-1 with PMSF was added per well. Plates were agitated vigorously for 15 minutes, room temperature, then frozen at −70° C. Plates were thawed, lysates were mixed thoroughly, and 100 μl were applied to an NPTII Elisa plate. A standard curve was made. Lysate from DMSO-treated control cells was pooled, serially diluted with PEB-1 with PMSF, and applied to duplicate wells of the ELISA plate, in a range of initial lysate amount of 150 ul-2.5 ul. In addition, 100 μl buffer alone was applied in duplicate as a blank. Plates were sealed and gently agitated at room temperature for 2 h. Following capture incubation, the plates were washed 5×300 μlwith PBS-T (0.5% Tween-20, PBS-T was supplied in the ELISA kit). For detection, a 1× dilution of enzyme conjugate diluent MRS-2 (5×) was made in PBS-T, into which 1:100 dilutions of enzyme conjugates A and B were added, as per instructions. Plates were resealed, and incubated with agitation, covered, room temperature, for 2 h. The washing was then repeated and 100 μlof room temperature TMB substrate was added. After approximately 30 minutes incubation (room temperature, agitation, covered), the reaction was stopped with 50 μl 3M sulfuric acid. Plates were read at 450 nm on a Molecular Devices Versamax plate reader.
Inhibitor effect was expressed as a percentage of DMSO-treated control signal, and inhibition curves were calculated using a 4-parameter equation: y=A+4B-A)/(1+((C/x)^13))), where C is half-maximal activity or EC50.
(In general: An ELISA detects its analyte on a solid surface through an enzyme-linked reagent.)

The mark [3] stands for this setting: GS4.3 cells, 72 h, read-out: Replicon EC50.
The mark [4] stands for this setting: Hepatitis C virus, Huh-7, Table 26, read-out: EC50.
Setting [5] is: Hepatitis C virus, Huh-7, GS4.3 cells, 72 h, read-out: Replicon EC50.
Setting [6] is: Hepatitis C virus, Huh-7, 72 h, read-out: Replicon EC50.

Like-named read-outs stand apart in the source and are kept apart here.

T1 sequence (P27958 1027-1657): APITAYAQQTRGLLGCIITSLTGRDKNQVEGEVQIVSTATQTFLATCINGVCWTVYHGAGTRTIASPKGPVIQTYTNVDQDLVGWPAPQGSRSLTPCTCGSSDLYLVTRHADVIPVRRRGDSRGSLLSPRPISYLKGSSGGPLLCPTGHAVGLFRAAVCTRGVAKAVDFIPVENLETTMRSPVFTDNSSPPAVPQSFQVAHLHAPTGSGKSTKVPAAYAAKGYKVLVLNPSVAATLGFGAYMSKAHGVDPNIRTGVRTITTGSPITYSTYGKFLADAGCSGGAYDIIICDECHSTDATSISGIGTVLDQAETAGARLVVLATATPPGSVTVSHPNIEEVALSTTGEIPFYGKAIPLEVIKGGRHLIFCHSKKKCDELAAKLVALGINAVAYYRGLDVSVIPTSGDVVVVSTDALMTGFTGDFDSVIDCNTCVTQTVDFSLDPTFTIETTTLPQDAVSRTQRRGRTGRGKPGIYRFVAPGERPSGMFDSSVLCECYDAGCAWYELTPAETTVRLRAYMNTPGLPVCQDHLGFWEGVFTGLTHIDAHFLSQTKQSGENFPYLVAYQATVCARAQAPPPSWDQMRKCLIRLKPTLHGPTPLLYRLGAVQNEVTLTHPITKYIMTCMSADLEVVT

Usually IC50 stands for the concentration that gives 50% inhibition. The term EC50 denotes the concentration needed to bring the measured effect to its halfway point. As to `C[C@@H](NC(=O)O[C@@H]1C[C@H]2C(=O)N[C@]3(C(=O)NS(=O)(=O)C4CC4)C[C@H]3/C=C\CCCCC[C@H](NC(=O)OC(C)(C)C)C(=O)N2C1)c1ccc(F)cn1` [Compound 150], the IC50 in test [1] is below 100 nM. In test [2] (setting [3]), the EC50 is above 10000 nM.

In the case of `O=C(CCC(F)(F)F)N[C@H]1CCCCC/C=C\[C@@H]2C[C@@]2(C(=O)NS(=O)(=O)C2CC2)NC(=O)[C@@H]2CCCN2C1=O` [Compound 2139], the IC50 in test [1] is above 10000 nM. For the same compound, the EC50 in test [2] (setting [4]) was below 1000 nM.

In the case of `CC(C)(C)OC(=O)N[C@H]1CCCCC/C=C\[C@@H]2C[C@@]2(C(=O)NS(=O)(=O)C2(C)CC2)NC(=O)[C@@H]2C[C@@H](OC(=O)N3Cc4ccccc4C3)CN2C1=O` [Compound 100, (1S,4R,6S,14S,18R)-1,3-Dihydro-isoindole-2-carboxylic acid 14-tert-butoxycarbonylamino-4-(1-methylcyclopropane-1-sulfonyl)aminocarbonyl-2,15-dioxo-3,16-diaza-tricyclo[14.3.0.0^4,6]nonadec-7-en-18-yl Ester], the IC50 in test [1] was below 100 nM. In addition, in test [2] (setting [5]), the EC50 is below 100 nM.

For the compound `CC(C)(C)OC(=O)N[C@H]1CCCCC/C=C\[C@@H]2C[C@@]2(C(=O)NS(=O)(=O)C2CC2)NC(=O)[C@@H]2CCCN2C1=O` [Compound 2137, 1S,4R,6S,14S)tert-but 14-Cyclopropanesulfonylaminocarbonyl-2,15-dioxo-3,16-diaza-tricyclo[14.3.0.0^4,6]nonadec-7-ene-14-yl carbamate], the IC50 in test [1] is above 10000 nM. Further, in test [2] (setting [4]), the EC50 is above 10000 nM.

For `CC(C)(C)OC(=O)N[C@H]1CCCCC/C=C\[C@@H]2C[C@@]2(C(=O)NS(=O)(=O)C2CC2)NC(=O)C2C[C@@H](OC(=O)NCc3ccc(F)cn3)CN2C1=O` (stereo partly drawn) [Compound 152], in test [1], the IC50 is below 100 nM. The EC50 in test [2] (setting [5]) is above 10000 nM. For `CC(C)(C)OC(=O)N[C@H]1CCCCC/C=C\[C@@H]2C[C@@]2(C(=O)O)NC(=O)C2C[C@@H](OC(=O)N3Cc4cccc(Cl)c4C3)CN2C1=O` (stereo partly drawn) [Compound 177] the same measures were below 100 nM and below 10000 nM. In the case of “(2R,6S,13aS,14aR,16aS,Z)-6-(tert-butoxycarbonylamino)-9,9-difluoro-2-(4-fluoroisoindoline-2-carbonyloxy)-5,16-dioxo-1,2,3,5,6,7,8,9,10,11,13 a,14,14a,15,16,16a-hexadecahydrocyclopropa(e)prrolo[1,2-a][1,4]diazacyclopentadecine-14a-carboxylic acid [Compound 1006]”, the IC50 in test [1] was below 100 nM. Further, the EC50 in test [2] (setting [3]) is below 10000 nM. As for `O=C1N[C@]2(C(=O)NS(=O)(=O)C3CC3)C[C@H]2/C=C\CCCCC[C@H](NCc2ccc(CO)o2)C(=O)N2C[C@H](OC(=O)N3Cc4cccc(F)c4C3)C[C@@H]12` [Compound 913], in test [1], the IC50 is below 100 nM. Besides, the EC50 in test [2] (setting [5]) was below 1000 nM. As for `O=C1N[C@]2(C(=O)NS(=O)(=O)C3CC3)C[C@H]2/C=C\CCCCC[C@H](Nc2c(N3C4CCC3CC4)c(=O)c2=O)C(=O)N2C[C@H](OC(=O)N3Cc4cccc(F)c4C3)C[C@@H]12` [Compound 199], the EC50 in test [2] (setting [6]) is below 10000 nM. Consider `O=C1N[C@]2(C(=O)NS(=O)(=O)C3CC3)C[C@H]2/C=C\CCCCC[C@H](Nc2c(N3CCC3)c(=O)c2=O)C(=O)N2CC(OC(=O)N3CCc4ccccc4C3)C[C@@H]12` (stereo partly drawn) [Compound 242], for which the EC50 in test [2] (setting [5]) is below 10000 nM. For `CC(C)(C)C(O)C(=O)NC1CCCCCC=CC2CC2(C(=O)NS(=O)(=O)C2CC2)NC(=O)C2CC(OC(=O)N3Cc4cccc(F)c4C3)CN2C1=O` (single isomer, unassigned) [Compound 248], the EC50 in test [2] (setting [5]) is below 1000 nM. Take `CC(C)(C)OC(=O)N[C@H]1CCN(S(=O)(=O)c2ccccc2[N+](=O)[O-])CC/C=C\[C@@H]2C[C@@]2(C(=O)O)NC(=O)[C@@H]2C[C@@H](OC(=O)N3Cc4cccc(F)c4C3)CN2C1=O` [Compound 1029]: the IC50 in test [1] was below 100 nM. The EC50 in test [2] (setting [5]) was below 10000 nM.

Turning to `N[C@H]1CCCCC/C=C\[C@@H]2C[C@@]2(C(=O)NS(=O)(=O)C2CC2)NC(=O)C2C[C@@H](OC(=O)N3Cc4c(Cl)ccc(Cl)c4C3)CN2C1=O` (stereo partly drawn) [Compound 156], the EC50 in test [2] (setting [5]) is below 1000 nM.

For `O=C1N[C@]2(C(=O)NS(=O)(=O)C3CC3)C[C@H]2/C=C\CCCCC[C@H](NC(=O)C2(C(F)(F)F)CC2)C(=O)N2C[C@H](OC(=O)N3Cc4cccc(Cl)c4C3)C[C@@H]12` [Compound 265], in test [1], the IC50 is below 100 nM. The EC50 in test [2] (setting [5]) is below 100 nM.

In the case of `CC(C)(C)OC(=O)N[C@H]1CCCCC/C=C\[C@@H]2C[C@@]2(C(=O)O)NC(=O)C2C[C@@H](OC(=O)N3Cc4c(Cl)ccc(Cl)c4C3)CN2C1=O` (stereo partly drawn) [Compound 144], in test [2] (setting [5]), the EC50 was below 10000 nM. For the compound `CC(C)(C)OC(=O)NC1CCCCC/C=C\[C@H]2C[C@@]2(C(=O)NS(=O)(=O)NCC(F)(F)F)NC(=O)C2CC(OC(=O)N3Cc4cccc(Cl)c4C3)CN2C1=O` (single isomer, unassigned) [Compound 226], the IC50 in test [1] is below 100 nM. Also, in test [2] (setting [5]), the EC50 was below 100 nM. On to `COc1cccc(S(=O)(=O)NC(=O)[C@@]23C[C@H]2/C=C\CCCCC[C@H](NC(=O)OC2CCCC2)C(=O)N2C[C@H](OC(=O)N4CCc5ccccc5C4)C[C@H]2C(=O)N3)c1` [Compound 188], for which, in test [2] (setting [6]), the EC50 is below 100 nM. As to `CC(C)(C)OC(=O)N[C@H]1CCC(F)(F)CCCC[C@@H]2C[C@@]2(C(=O)NS(=O)(=O)C2CC2)NC(=O)[C@@H]2C[C@@H](OC(=O)N3Cc4cccc(F)c4C3)CN2C1=O` [Compound 1010, (2R,6S,13aS,14aR,16aS,Z)-6-(tert-butoxycarbonylamino)-14a-(cyclopropylsulfonylcarbamoyl)-9,9-difluoro-5,16-dioxooctadecahydrocyclopropa (e) prrolo[1,2-a][1,4]diazacyclopentadecine 2-yl 4-fluoroisoindoline-2-carboxylate], in test [1], the IC50 was below 100 nM. Also, in test [2] (setting [5]), the EC50 was below 100 nM. `O=C1N[C@]2(C(=O)NS(=O)(=O)C3CC3)C[C@H]2/C=C\CCCCC[C@H](NC(=S)N2CCCC2)C(=O)N2CC(OC(=O)N3Cc4cccc(F)c4C3)C[C@@H]12` (stereo partly drawn) [Compound 244]: the 50% effective concentration (EC50) in test [2] (setting [5]) is below 100 nM. On the same count and under the same terms, as for `O=C(N[C@H]1CCCCC/C=C\[C@@H]2C[C@@]2(C(=O)O)NC(=O)C2C[C@@H](OC(=O)N3Cc4ccncc4C3)CN2C1=O)OC1CCCC1` (stereo partly drawn) [Compound 146], the figure is above 10000 nM; as for `Cc1ccccc1S(=O)(=O)NC(=O)[C@@]12C[C@H]1/C=C\CCCCC[C@H](NC(=O)OC(C)(C)C)C(=O)N1C[C@H](OC(=O)N3Cc4cccc(F)c4C3)CC1C(=O)N2` (stereo partly drawn) [Compound 157], below 100 nM; as for `CC(C)(C)OC(=O)N[C@H]1COCCC/C=C\[C@@H]2C[C@@]2(C(=O)NS(=O)(=O)C2CC2)NC(=O)[C@@H]2C[C@@H](OC(=O)N3Cc4cccc(Cl)c4C3)CN2C1=O` [Compound 1025], below 100 nM.

For `CNc1c(NC(=O)C23C[C@H]2/C=C\CCCCC[C@H](NC(=O)OC(C)(C)C)C(=O)N2C[C@H](OC(=O)N4Cc5cccc(F)c5C4)C[C@H]2C(=O)N3)c(=O)c1=O` (stereo partly drawn) [Compound 646], in test [2] (setting [5]), the EC50 is above 10000 nM. On to `Cc1noc(C)c1S(=O)(=O)NC(=O)[C@@]12C[C@H]1/C=C\CCCCC[C@H](NC(=O)OC1CCCC1)C(=O)N1C[C@H](OC(=O)N3CCc4ccccc4C3)C[C@H]1C(=O)N2` [Compound 187], for which the EC50 in test [2] (setting [6]) was below 1000 nM.

For the origin of these results see patent publication US8299021B2, “Macrocyclic inhibitors of hepatitis C virus replication” (InterMune, Inc., priority 2005, dated 2012).
